# From patent publication US9795131B2, “Sophorolactone compositions and uses thereof” (ECOVER CO-ORDINATION CENTER N.V., priority 2011, dated 2017)
# Values joined by “and” are separate entries in the source; they are usually repeats but may differ in a detail not shown here. Equal values may be shown once.
# What was measured:
# [1] = Capacity of solvents to dissolve sophorolactone; type: physicochemical; conditions: percent sophorolactone dissolved by the solvent at room temperature
# [2] = OK / NOK; cited from earlier work
# [3] = Contact angle of isoamyl lactate / partial sophorolipid hydrolysate mixtures; type: physicochemical; conditions: room temperature, sessile drop; FIG. 4
# Description: The contact angle of combinations of isoamyl lactate (Galactic) with partial sophorolipid hydrolysate (0.7 mol equivalent) on white PVC-strips (Leneta) was measured at room temperature with a Krüss DSA100 tensiometer using the sessile drop method. Each component of the mixtures is at maximum 1% active matter. Results are evaluated with the software Statistica.
# Solubility in water = type: physicochemical
# [4] = Contact angle of deionized water on treated substrate, without or with rinses; type: physicochemical; conditions: for Contact angle Rinse 1 / Contact angle Rinse 2 / Contact angle Rinse 3 / Contact angle Rinse 4 / Contact angle Rinse 5 / Contact Angle: PVC, in ° (unit assumed); for Contact angle Rinse 1: after rinse 1; for Contact angle Rinse 2: after rinse 2; for Contact angle Rinse 3: after rinse 3; for Contact angle Rinse 4: after rinse 4; for Contact angle Rinse 5: after rinse 5; for Contact Angle: before rinsing, NM = not measurable due to an extremely low contact angle
# Description: A test composition was made by dissolving 10% sophorolactone in ethanol. […] […] Substrates used were glass, polyvinylchloride (PVC) and leek leaves.
# (§1) Several contact angle measurements were performed on each substrate.
# The results obtained were for solutions wherein lactone was replaced by sodium lauryl sulphate (SPS), APG600 (a C10-C16 alkylpolyglucoside), wild type or crude sophorolipid (as obtained after fermentation, denominated as WT in Table 2), FAEO/PO nonionic (CAS 68439-51-0, C12-14 fatty alcohol, 5 mole EO, 4 mol EO), modified FAEO/PO (C8/10 fatty alcohol+1 PO+22 EO (2-hydroxydecyl)-ether) and siloxane polyether copolymer (Silwet Hydrostable 68). […]
# [5] = as above; type: physicochemical; conditions: 1% active; for Contact angle Rinse 2: after rinse 2; for Contact angle Rinse 2 / Contact angle Rinse 3 / Contact angle Rinse 1 / Contact Angle: in ° (unit assumed); for Contact angle Rinse 3: after rinse 3; for Contact angle Rinse 1: after rinse 1; for Contact Angle: before rinsing, NM = not measurable due to an extremely low contact angle
# Description: A test composition was made by dissolving 10% sophorolactone in ethanol. […] Different substrates are wetted with said 1% lactone dispersion and dried in a climate chamber at 40° C. Substrates used were glass, polyvinylchloride (PVC) and leek leaves.
# as §1
# The results obtained were for solutions wherein lactone was replaced by sodium lauryl sulphate (SPS), APG600 (a C10-C16 alkylpolyglucoside), wild type or crude sophorolipid (as obtained after fermentation, denominated as WT in Table 2), FAEO/PO nonionic (CAS 68439-51-0, C12-14 fatty alcohol, 5 mole EO, 4 mol EO), modified FAEO/PO (C8/10 fatty alcohol+1 PO+22 EO (2-hydroxydecyl)-ether) and siloxane polyether copolymer (Silwet Hydrostable 68).
# This experiment was repeated with different substrates and different 1% active surfactant solutions as elaborated in Table 2.
# Film forming properties = type: physicochemical
# From the text: This experiment was repeated with pieces of leek with the same outcome. […] The latter destructive detection method necessitated several PVC strips to be used, each strip lasting an extra rinse cycle before detection.
# Antifogging test = type: physicochemical; conditions: mirror treated with 10% solution in water of 10% sophorolactone in ethanol, dried
# Description: The other half of the mirror was treated with a 10% solution of ethanol.
# Propionibacterium acnes = assay: Effectiveness against acne bacterium; type: cell-based
# dust mite proteins = assay: Denaturation of dust mite proteins; type: biochemical
# [6] = Allergic reaction to house dust mite excrements
# [7] = Sensitivity to hard water; type: physicochemical
compound,measurement,setting,value
OCCCO [1.3 propanediol],% lactone dissolved,[1],2.75%
"CC1(C)OCC(CO)O1 (stereo not drawn) [2-3-o-isopropyliden glycerin, (2,2-dimethyl-[1,3]dioxolan-4-yl)-methanol]",GRAS status,[2],NOK
OCc1ccccc1 [Benzylalcohol],% lactone dissolved,[1],67.35%
CCCCOC(=O)C(C)O (stereo not drawn) [Butyl lactate],% lactone dissolved,[1],20%
CCCCCCC(O)CO (stereo not drawn) [Caprylyl Glycol],% lactone dissolved,[1],8.65%
C=C(C)[C@H]1CC=C(C)CC1 [D-limonene],% lactone dissolved,[1],8.5%
"COC(C)COC(C)CO (stereo not drawn) [DPM, dipropyleneglycol methyl ether]",% lactone dissolved,[1],28.93%
same,GRAS status,[2],NOK
CO[C@H]1CO[C@H]2[C@@H]1OC[C@H]2OC [Dimethyl isosorbide],% lactone dissolved,[1],31.89%
same,GRAS status,[2],NOK
CCO [Ethanol],% lactone dissolved,[1],7.5%
CCOC(C)=O [Ethylacetate],% lactone dissolved,[1],3.96%
CC(=O)O [Glacial acetic],% lactone dissolved,[1],23.65%
O=C1OCC(CO)O1 (stereo not drawn) [Glycerincarbonate],% lactone dissolved,[1],<1%
OCC(O)CO [Glycerol],% lactone dissolved,[1],<1%
CCCCCCO [Hexanol],% lactone dissolved,[1],2.65%
OCCCc1ccccc1 [Hydrocinnamylalcohol],% lactone dissolved,[1],32.5%
CC(C)CCOC(=O)C(C)O (stereo not drawn) [Isoamyl lactate],% lactone dissolved,[1],21.2%
same,concentration at maximal PVC wetting,[3],~1.2%
same,solubility in water,Solubility in water,≤ 1%
same,GRAS status,[2],NOK
CC(C)O [Isopropanol],% lactone dissolved,[1],2.2%
CCCCOCC(C)O (stereo not drawn) [PNB Henkel],% lactone dissolved,[1],6.73%
"CCCOCC(C)O (stereo not drawn) [PNP, 1-propoxy 2-propanol]",% lactone dissolved,[1],15.57%
OCCc1ccccc1 [Phenetyl alcohol],% lactone dissolved,[1],22%
OCCOc1ccccc1 [Phenoxyethanol],GRAS status,[2],NOK
CC(O)CO (stereo not drawn) [Propylene glycol],% lactone dissolved,[1],9.05%
"CCCCCCCCCCCCOS(=O)(=O)[O-].[Na+] [SLS, sodium lauryl sulphate, reference compound]",Contact angle Rinse 1,"[4]; 1% active, sulphate",72 and 100 and 96
same,Contact angle Rinse 2,"[4]; 1% active, sulphate",102 and 94 and 90
same,Contact angle Rinse 3,"[4]; 1% active, sulphate",64 and 65
same,Contact angle Rinse 4,"[4]; 1% active, sulphate",75 and 84 and 102
same,Contact angle Rinse 5,"[4]; 1% active, sulphate",100 and 99 and 101
same,Contact Angle,[4]; 1% active,1
same,Contact angle Rinse 2,"[5]; glass, sulphate",33.2 and 64.2 and 33.8
same,Contact angle Rinse 3,"[5]; glass, sulphate",37.3 and 40.3 and 51.8
same,Contact angle Rinse 4,"[5]; glass, after rinse 4, sulphate",50.8 and 36.2
same,Contact angle Rinse 5,"[5]; glass, after rinse 5, sulphate",34 and 38 and 30
"Cc1ccc(C(C)C)c(O)c1 [Thymol, thymol, reference compound]",retention of active on PVC substrate,"Film forming properties; 1% dispersion of 10% lactone, 10% thymol, 80% ethanol solution, smell and sulfuric acid colour",remained fixed on the PVC substrate for several rinses
Glycerin formal,% lactone dissolved,[1],35%
sophorolactone,contact angles and rinse resistance,[4]; 1% lactone dispersion made using hard water,equally low contact angles and excellent rinse resistance
same,Contact angle Rinse 1,[4]; 0.1% Lactone,66 and 67 and 79
same,Contact angle Rinse 2,[4]; 0.1% Lactone,90 and 80
same,Contact angle Rinse 1,[4]; 1% active in hard water (200 ppm CaCO3),19 and 20 and 21
same,Contact angle Rinse 2,[4]; 1% active in hard water,14 and 15
same,Contact angle Rinse 3,[4]; 1% active in hard water,12 and 17 and 14
same,Contact angle Rinse 4,[4]; 1% active in hard water,11 and 12
same,Contact angle Rinse 5,[4]; 1% active in hard water,12 and 11 and 10
same,Contact angle Rinse 2,[4]; 1% active,0
same,Contact angle Rinse 2,"[4]; 1% active, listed as lactone",8.4 and 16
same,Contact Angle,[4]; 1% active,7 and 10
same,wetting by water after rinses,[4]; hydrophobic surface such as PVC and leek,excellent wetting by water even after 5 rinses
same,Contact angle Rinse 1,[5]; glass,15.3 and 10 and 12
same,Contact angle Rinse 2,[5]; glass,24.4 and 30 and 25
same,Contact angle Rinse 3,[5]; glass,23.5 and 27.8 and 25
same,Contact Angle,[5]; glass,14.2 and 14.1 and 11.3 and 10
same,Contact angle Rinse 1,[5]; leek,25 and 26 and 28
same,Contact Angle,[5]; leek,28 and 27 and 25
same,stability of dispersion,Film forming properties; 1% sophorolactone dispersion in water made from 10% solution in ethanol,remained stable overnight at room temperature without visual separation
same,removability of dried layer by water,"Film forming properties; 10% sophorolactone in benzyl alcohol applied to a PVC sheet, air dried",virtually impossible to remove with running tap water or with repeated rinsing with water
same,repeated rinse and dry cycles withstood by layer,"Film forming properties; PVC sheet, 1% sophorolactone dispersion, air dried",at least 5 cycles
same,condensation or fogging above boiling water,Antifogging test,not visually covered with condensation water and retained its mirror properties
same,effectiveness against Propionibacterium acnes,Propionibacterium acnes,effective
same,denaturation of dust mite proteins,dust mite proteins,denatures dust mite proteins
same,allergic reaction to excrements of house dust mites,[6],effectively reduces the allergic reaction
same,phytotoxicity,Phytotoxicity,not phytotoxic
same,sensitivity to hard water,[7],insensitive to hard water
